Key:
[1] = target: T1, TrkA kinase (Homo sapiens, UniProt P04629); assay: In vitro TrkA inhibitory activity using TR-FRET assay; assay type: biochemical; settings: 5 ng TrkA, 500 μM ATP, read-out: TrkA inhibition in-vitro IC50
T1 construct: purchased Upstate, USA
How it was run: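 Kinase (5 ng) was preincubated with compound for 30 min at 20-35° C before adding 40 nM ULight poly GT and 500 μM ATP; stopped with EDTA after 30 min. Eu-anti-phosphotyrosine antibody (0.5 nM) was read at 615/665 nm with 1% DMSO final. Compounds showing >25% inhibition at 1 μM went to sigmoidal dose-response IC50 fitting.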

[2] = Metabolic stability using Human Liver Microsomes (HLM); assay type: in vitro ADME; settings: pooled human liver microsomes, compound 1 μM, 0.3 mg/ml microsomal protein, 1 mM NADPH
Description: Stability Protocol: Metabolic Stability Using Rat Liver Microsomes (RLM) and Human Liver Microsomes (HLM).
This assay was performed using pooled male rat liver microsomes (In-house prepared as per SOP), Pooled Human liver microsomes (XENOTECH; Batch No— H0630-1110189)). The 100 μl reaction contains the compounds at 1 μM, 0.3 mg/ml microsomal protein and both the co-factors (1 mM NADPH) in buffer and the mixture was incubated at different time points (0, 15, 30, 45, 60, & 90 minutes). The reaction was stopped by the addition of equal volume of acetonitrile containing internal standard (Telmesartin). The precipitated protein was removed by centrifugation and the supernatant were analyzed LC/MS-MS method. The percent parent compound remaining was quantified by analysis using following formula (% parent compound remaining=(peak area at Time x/peak area at T0)×100. The intrinsic clearance was calculated using the following formula. CLint,app: (0.693/in vitro t½)(incubation volume/mg of microsomal protein)(45 mg microsomal protein/gram of liver)(20^a g of liver/kg body weight) • a: 20 and 45 g of liver/kg of body weight were used for human and rat, respectively (Lu C et al., DMD, 2006). Bio-analysis: It was performed in Multiple Reaction Monitoring mode (negative mode) using Applied Biosystems API 4000 coupled to Agilent Technologies 1100 series HPLC on a reverse phase column (Zorbax Eclipse XDB C18, 50×4.6 mm, 5 μm). Celecoxib was used as internal standard both in in-vitro and in-vivo experiments. Mobile phase used 0.05% […] water and acetonitrile (10:90) with a flow rate of 0.6 ml/minute. The injection volume was kept as 10 μl.

T1 sequence (P04629 33-796): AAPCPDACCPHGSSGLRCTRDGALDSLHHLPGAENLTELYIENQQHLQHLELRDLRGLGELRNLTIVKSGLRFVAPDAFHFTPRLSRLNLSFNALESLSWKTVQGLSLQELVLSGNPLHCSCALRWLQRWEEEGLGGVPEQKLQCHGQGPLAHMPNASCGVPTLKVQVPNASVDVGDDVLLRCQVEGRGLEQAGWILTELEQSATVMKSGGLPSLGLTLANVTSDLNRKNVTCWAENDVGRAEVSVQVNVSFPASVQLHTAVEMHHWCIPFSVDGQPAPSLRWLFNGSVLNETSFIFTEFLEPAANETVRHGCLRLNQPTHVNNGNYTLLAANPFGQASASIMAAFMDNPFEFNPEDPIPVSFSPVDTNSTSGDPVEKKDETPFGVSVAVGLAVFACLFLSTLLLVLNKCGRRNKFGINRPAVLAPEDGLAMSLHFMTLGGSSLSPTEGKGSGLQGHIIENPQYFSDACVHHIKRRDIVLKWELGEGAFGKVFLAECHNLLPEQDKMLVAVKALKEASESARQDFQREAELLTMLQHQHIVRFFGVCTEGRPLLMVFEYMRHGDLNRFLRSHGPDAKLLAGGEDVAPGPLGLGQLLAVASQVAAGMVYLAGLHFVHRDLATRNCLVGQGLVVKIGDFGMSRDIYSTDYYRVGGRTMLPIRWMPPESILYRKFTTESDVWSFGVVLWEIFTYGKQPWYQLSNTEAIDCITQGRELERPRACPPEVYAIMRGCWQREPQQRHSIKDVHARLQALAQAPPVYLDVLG

Row | IC50 [1] [µM] | half-life at 1 μM [2] [h] | SMILES
1 | ≤ 0.05 | > 1.33 | CN(C)S(=O)(=O)NC(=O)c1cnn2ccc(N3C[C@@H](F)C[C@@H]3c3cc(F)ccc3F)cc12 [Example 78, 5-((2R,4S)-2-(2,5-difluorophenyl)-4-fluoropyrrolidin-1-yl)-N-(N,N-dimethylsulfamoyl) pyrazolo[1,5-a]pyridine-3-carboxamide]
2 | ≤ 0.05 | > 1.33 | CCN(C)S(=O)(=O)NC(=O)c1cnn2ccc(N3C[C@@H](F)C[C@@H]3c3cc(F)ccc3F)cc12 [Example 79, 5-((2R,4S)-2-(2,5-difluorophenyl)-4-fluoropyrrolidin-1-yl)-N-(N-ethyl-N-methylsulfamoyl) pyrazolo[1,5-a]pyridine-3-carboxamide]
3 | ≤ 0.05 | > 1.33 | CCN(C)S(=O)(=O)NC(=O)c1cnn2ccc(N3CCC[C@@H]3c3cc(F)ccc3OC)cc12 [Example 91, (R)-N-(N-ethyl-N-methylsulfamoyl)-5-(2-(5-fluoro-2-methoxyphenyl)pyrrolidin-1-yl)pyrazolo[1,5-a]pyridine-3-carboxamide]

From patent US10047087B2, “Substituted pyrazolo[1,5-A] pyridine as tropomyosin receptor kinase (TrK) inhibitors” (Dr. Reddy's Laboratories Ltd., priority 2011, dated 2018)
